Laboratory results from patent US7371755B1 (Biota Scientific Management Pty Ltd., priority 1999, dated 2008).
≈ marks a conversion by molar mass, not a printed value. Where two headings read alike, the source gives them in different places.

Key:
[1] = Cytotoxicity in uninfected treated cultures (HRV type 2 assay); conditions: human
Description: (§1) The ability of compounds to suppress virus replication and thereby protect cells from HRV-induced CPE was measured using human embryo lung (MRC-5) and human epidermoid carcinoma of the mouth (KB) cells infected with HRV type 1A and HRV type 2, respectively. Cells grown in 96 well tissue culture plates using conventional mammalian tissue culture medium (such as minimum essential medium) supplemented with fetal calf serum were used in an assay essentially similar to that described by Sidwell and Huffman (Applied Microbiology, 22, 797-801 (1971)). Test compounds were dissolved in 100% anhydrous dimethyl sulfoxide and serially diluted in tissue culture medium. The antiviral potency of the test compounds was assessed by exposing replicate tissue culture wells to a selected dilution series of between 6 and 7 compound concentrations in the presence of sufficient test virus to invoke significant CPE over the course of the assay. Control cells were also exposed to identical concentrations of compounds in the absence of virus or were infected with virus under the same conditions but in the absence of compounds. Compounds of established anti-HRV efficacy (enviroxime, ribavirin and pirodavir) were assayed by identical procedures in parallel to the test compounds. Tissue culture media were identically supplemented to maintain cell viability and support viral growth while suppressing bacterial growth over the period of the assay (supplements: 2% fetal calf serum, 0.01% sodium bicarbonate, […] gentamicin, […] magnesium chloride, […] of zinc chloride). […] At this time all infected cultures were examined by eye using a light microscope and CPE scored on a scale of 0 (no CPE) to 4 (maximum CPE). Uninfected treated cultures were similarly scored for cytotoxic effects (eg. cell enlargement, granularity, rounding, detachment). […] As an alternative to a CC50 value, cytoxicity in some cases was expressed as the Minimum Toxic Concentration (MTC).
(§2) Vital dye staining to measure cell viability was also used to quantify CPE and cytotoxic effects. The vital dye technique was based on either neutral red uptake (Modification of the method of McManus, Appl. Environment. Microbiol., 31, 35-38, 1976) or XXT metabolism. After the assay had been scored by eye with the aid of a microscope, 100 1 of neutral red (NR) solution (0.34% NR in phosphate buffered saline (PBS)) was added to each well and mixed gently. The assays were returned to the 37° C. incubator for 2 hours to facilitate uptake of the NR by viable cells. The medium/NR mixture was then aspirated from the surface of the cells, which were washed twice with PBS. 0.25 ml of absolute ethanol containing Sorensen's citrate buffer I, was added with gentle mixing and the assays incubated at room temperature in the dark for 30 minutes to dissolve the NR. NR staining of viable cells was then quantified spectrophotometrically by measuring the colour density of the NR solution using a BioTek EL-309 microplate reader at dual wavelengths of 540 and 405 nm. The differences in the two readings were automatically determined to eliminate background errors. EC50 and CC50 values were determined by regression analysis matching compound concentration to NR staining. The XTT method involved use of a solution of XTT (1 mg/ml in culture media) which was added to each well and the plates incubated at 37° C. for 4 hours. XTT metabolism was measured spectrophotometrically using a similar method to that described above except that the dual wavelengths were 450 nm and 650 nm. EC50 and CC50 values were determined by regression analysis using a similar method to that described above.
(§3) Selectivity indices (SI) are the CC50 or MTC divided by the EC50.

HRV type 1A = experiment: Inhibition of viral cytopathic effect (CPE), HRV type 1A in MRC-5 cells; format: cell-based, human rhinovirus; conditions: for EC50: Enterovirus
Description: (§5) The ability of compounds to suppress virus replication and thereby protect cells from HRV-induced CPE was measured using human embryo lung (MRC-5) and human epidermoid carcinoma of the mouth (KB) cells infected with HRV type 1A and HRV type 2, respectively. […] Test compounds were dissolved in 100% anhydrous dimethyl sulfoxide and serially diluted in tissue culture medium. The antiviral potency of the test compounds was assessed by exposing replicate tissue culture wells to a selected dilution series of between 6 and 7 compound concentrations in the presence of sufficient test virus to invoke significant CPE over the course of the assay. Control cells were also exposed to identical concentrations of compounds in the absence of virus or were infected with virus under the same conditions but in the absence of compounds. Compounds of established anti-HRV efficacy (enviroxime, ribavirin and pirodavir) were assayed by identical procedures in parallel to the test compounds. Tissue culture media were identically supplemented to maintain cell viability and support viral growth while suppressing bacterial growth over the period of the assay (supplements: 2% fetal calf serum, 0.01% sodium bicarbonate, 50 g/ml gentamicin, 5 M magnesium chloride, 10 mM of zinc chloride). […] At this time all infected cultures were examined by eye using a light microscope and CPE scored on a scale of 0 (no CPE) to 4 (maximum CPE). Uninfected treated cultures were similarly scored for cytotoxic effects (eg. cell enlargement, granularity, rounding, detachment). […] As an alternative to a CC50 value, cytoxicity in some cases was expressed as the Minimum Toxic Concentration (MTC).
(§6) Vital dye staining to measure cell viability was also used to quantify CPE and cytotoxic effects. […] After the assay had been scored by eye with the aid of a microscope, 100 1 of neutral red (NR) solution (0.34% NR in phosphate buffered saline (PBS)) was added to each well and mixed gently. The assays were returned to the 37° C. incubator for 2 hours to facilitate uptake of the NR by viable cells. The medium/NR mixture was then aspirated from the surface of the cells, which were washed twice with PBS. 0.25 ml of absolute ethanol containing Sorensen's citrate buffer I, was added with gentle mixing and the assays incubated at room temperature in the dark for 30 minutes to dissolve the NR. NR staining of viable cells was then quantified spectrophotometrically by measuring the colour density of the NR solution using a BioTek EL-309 microplate reader at dual wavelengths of 540 and 405 nm. The differences in the two readings were automatically determined to eliminate background errors. EC50 and CC50 values were determined by regression analysis matching compound concentration to NR staining. The XTT method involved use of a solution of XTT (1 mg/ml in culture media) which was added to each well and the plates incubated at 37° C. for 4 hours. XTT metabolism was measured spectrophotometrically using a similar method to that described above except that the dual wavelengths were 450 nm and 650 nm. EC50 and CC50 values were determined by regression analysis using a similar method to that described above.

HRV type 2 = experiment: Inhibition of viral cytopathic effect (CPE), HRV type 2 in KB cells; format: cell-based, human rhinovirus; conditions: for EC50: Enterovirus, read-out: Activity on Rhinovirus Type 2 EC50
Description: as §5, §6

[2] = Cytotoxicity in uninfected treated cultures (HRV type 1A assay); format: cell-based, human; conditions: human
Description: as §5, §6

[3] = tested on: human epidermoid carcinoma of the mouth (KB) cells; experiment: Cytotoxicity in uninfected treated cultures (HRV type 2 assay)
Description: as §1, §2, §3

[4] = tested on: human embryo lung (MRC-5) cells; experiment: Cytotoxicity in uninfected treated cultures (HRV type 1A assay); format: cell-based
Description: as §5, §6

mammalian cell culture [5] = experiment: in vitro; format: cell-based
Description: (§4) Activity against Enteroviruses in Mammalian Cell Culture Assays Compounds 50 and 56 of the Invention were Tested Against Other Picornaviruses Using Similar cell based assays to those described in example 30 above and the results are shown in Table 6 below: […]

Echo 21 = experiment: Activity against Echo 21 in mammalian cell culture assay; format: cell-based
Description: as §4

mammalian cell culture [6] = format: cell-based
Description: as §4

Enterovirus 70 = experiment: Activity against Enterovirus 70 in mammalian cell culture assay; format: cell-based
Description: as §4

Coxsackie A21 = experiment: Activity against Coxsackie A21 in mammalian cell culture assay; format: cell-based
Description: as §4

in vitro = format: cell-based
Description: as §4

[7] = MRC5, HRV type 1A, MRC-5 cells, concentration yielding 50% antiviral efficacy, read-out: Activity on Rhinovirus Type 1A EC50
[8] = HRV type 2, KB cells, concentration yielding 50% antiviral efficacy
[9] = HRV type 1A, MRC-5 cells, concentration yielding 50% antiviral efficacy
[10] = MRC5, read-out: Activity on Rhinovirus Type 1A EC50
[11] = Enterovirus D; read-out: Activity on Enterovirus 70 EC50

Structure (SMILES) | CC50 [2] | Activity on Rhinovirus Type 2 CC50 [3] | Activity on Rhinovirus Type 1A EC50 (HRV type 1A; [9]) | Activity on Rhinovirus Type 2 EC50 (HRV type 2; [8]) | Activity on Rhinovirus Type 1A CC50 [4] | other results
COCc1cc(CCCOc2c(C)cc(-c3ccccc3)cc2C)on1 [Compound 6, 3-(methoxymethyl)-5-[3-[2,6-dimethyl-4-phenylphenoxy]-propyl]-isoxazole] | > 50 µg/mL | – | – | – | – | CC50 ([1]; KB cells, uninfected): > 5 µg/mL; EC50 (HRV type 1A; [7]): 0.16 µg/mL (≈ 0.455 µM); EC50 (HRV type 2; [8]): < 0.005 µg/mL
Cc1cc(-c2ccccc2)cc(C)c1OCCCc1cc(COCCOCCOCCO)no1 [Compound 8] | – | 5 µg/mL | 0.59 µg/mL | 0.001 µg/mL | 22.7 µg/mL | –
Cc1cc(-c2ccccc2)cc(C)c1OCCCc1cc(COCCOCCOCCOCCOCCOCCO)no1 [Compound 10] | – | 5 µg/mL | >50 µg/mL | 0.1 µg/mL | 19 µg/mL | –
CC(=O)NCCOCCOCc1cc(CCCOc2c(C)cc(-c3ccccc3)cc2C)on1 [Compound 19] | – | – | – | – | – | CC50 [1]: 2 µg/mL (≈ 4.29 µM); EC50 (HRV type 1A; [10]): 0.87 µg/mL (≈ 1.86 µM); EC50 (HRV type 2; KB): < 0.005 µg/mL; CC50 ([2]; MRC-5 cells, no virus, CC50 or, in some cases, MTC, read-out: Activity on Rhinovirus Type 1A CC50): 5.79 µg/mL (≈ 12.4 µM)
Cc1cc(-c2noc(C(F)(F)F)n2)cc(C)c1OCCCc1cc(COCCOCCOCCO)no1 [Compound 24] | – | > 1 µg/mL | 0.21 µg/mL | 0.04 µg/mL | 5.28 µg/mL | –
Cc1cc(-c2ccccc2)cc(C)c1OCCCc1cc(COCCOCCOCCOCc2cc(CCCOc3c(C)cc(-c4ccccc4)cc3C)on2)no1 [Compound 32, 1,8-bis-[5-[3-[2,6-dimethyl-4-phenylphenoxy]-propyl]-isoxazolyl-3-methyloxy]-3,6-dioxaoctane] | – | > 5 µg/mL | 0.32 µg/mL | 0.1 µg/mL | > 50 µg/mL | –
Cc1cc(-c2ccccc2)cc(C)c1OCCCc1cc(COCCOCCOCCOCCOCCOCCOCc2cc(CCCOc3c(C)cc(-c4ccccc4)cc3C)on2)no1 [Compound 34] | – | > 0.5 µg/mL | >50 µg/mL | 0.09 µg/mL | 10.9 µg/mL | –
Cc1cc(-c2ccccc2)cc(C)c1OCCCc1cc(COCCOCCOCCOCCNC(=O)Nc2ccc(Cc3ccc(NC(=O)NCCOCCOCCOCCOCc4cc(CCCOc5c(C)cc(-c6ccccc6)cc5C)on4)cc3)cc2)no1 [Compound 48] | – | > 5 µg/mL | 3.85 µg/mL | 0.6 µg/mL | 30.6 µg/mL | –
Cc1cc(-c2noc(C(F)(F)F)n2)cc(C)c1OCCCc1cc(COCCOCCOCc2cc(CCCOc3c(C)cc(-c4noc(C(F)(F)F)n4)cc3C)on2)no1 [Compound 50, 1,5-bis-[5-[3-[2,6-dimethyl-4-(5-trifluoromethyl-1,2,4-oxadiazolyl)phenoxy]-propyl]-isoxazolyl-3-methyloxy]-3-oxapentane] | – | 2 µg/mL | 0.06 µg/mL | 0.02 µg/mL | 10 µg/mL | Activity on Echo 21 CC50 (mammalian cell culture [5]): 46.3 µg/mL; Activity on Echo 21 EC50 (Echo 21): 0.0006 µg/mL; Activity on Coxsackie A21 CC50 (mammalian cell culture [6]): > 50 µg/mL; Activity on Enterovirus 70 CC50 (mammalian cell culture [6]): > 50 µg/mL; Activity on Enterovirus 70 EC50 (Enterovirus 70; Enterovirus 70): >50 µg/mL; Activity on Coxsackie A21 EC50 (Coxsackie A21): 0.35 µg/mL
Cc1cc(-c2noc(C(F)(F)F)n2)cc(C)c1OCCCc1cc(COCCOCCOCCOCCOCc2ccc(COCCOCCOCCOCCOCc3cc(CCCOc4c(C)cc(-c5noc(C(F)(F)F)n5)cc4C)on3)cc2)no1 [Compound 56] | – | 2 µg/mL | 1.8 µg/mL | 0.09 µg/mL | 10 µg/mL | Activity on Echo 21 CC50 (mammalian cell culture [5]): 7.93 µg/mL; Activity on Echo 21 EC50 (Echo 21): 0.0026 µg/mL; Activity on Coxsackie A21 CC50 (mammalian cell culture [6]): 11.1 µg/mL; Activity on Enterovirus 70 CC50 (mammalian cell culture [6]): > 50 µg/mL; Activity on Enterovirus 70 EC50 (Enterovirus 70; Enterovirus 70): 2.88 µg/mL; Activity on Coxsackie A21 EC50 (Coxsackie A21): 0.36 µg/mL
CC(C)S(=O)(=O)n1c(N)nc2ccc(/C(=N/O)c3ccccc3)cc21 [Enviroxime] | 0.49 µg/mL (≈ 1.37 µM) | – | – | – | – | CC50 (in vitro): 0.45 µg/mL (≈ 1.26 µM); EC50 (Echo 21): 0.03 µg/mL (≈ 0.0837 µM); EC50 (Enterovirus 70; [11]): 0.21 µg/mL (≈ 0.586 µM); EC50 (Coxsackie A21): 0.39 µg/mL (≈ 1.09 µM); EC50 (HRV type 1A; [7]): 0.006 µg/mL (≈ 0.0167 µM)
CCOC(=O)c1ccc(OCCC2CCN(c3ccc(C)nn3)CC2)cc1 [Pirodavir, reference compound] | > 10 µg/mL | – | – | – | – | EC50 (HRV type 1A; [7]): 0.02 µg/mL (≈ 0.0541 µM); EC50 (HRV type 2; [8]): 0.003 µg/mL (≈ 0.00812 µM)
Cc1cc(CCCOc2c(C)cc(-c3noc(C(F)(F)F)n3)cc2C)on1 [Pleconaril, reference compound] | 10 µg/mL (≈ 26.2 µM) | – | – | – | – | CC50 ([1]; KB cells, uninfected): 0.5 µg/mL (≈ 1.31 µM); EC50 (Echo 21): > 0.00016 µg/mL; EC50 (Enterovirus 70; Enterovirus D, read-out: Activity on Enterovirus 70 EC50): 0.28 µg/mL (≈ 0.734 µM); EC50 (Coxsackie A21): 0.0033 µg/mL (≈ 0.00865 µM); EC50 (HRV type 1A; [10]): 0.02 µg/mL (≈ 0.0524 µM); EC50 (HRV type 2; KB): 0.05 µg/mL (≈ 0.131 µM)
NC(=O)c1ncn([C@@H]2O[C@H](CO)[C@@H](O)[C@H]2O)n1 [Ribavirin] | 98.3 µg/mL (≈ 403 µM) | – | – | – | – | EC50 (Echo 21): 3 µg/mL (≈ 12.3 µM); EC50 (Enterovirus 70; [11]): > 100 µg/mL; EC50 (Coxsackie A21): > 100 µg/mL
